Measurements published in ChEMBL document CHEMBL1201862, “PubChem BioAssay data set” (2004).
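Growth conditions: 96-well plates. Treatment: test compound, 48 hours, 5 concentrations. Analysis: linear interpolation between bracketing concentrations; unreached endpoints set to highest concentration. GI50: concentration for 50% inhibition of growth.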 Calls of active or inactive are those of the source. Cut-off read from the data, not from the text of the source: active = GI50 up to about 1.1 µM and inactive = higher.

Tests used:
Experiment in all cases: DTP human tumour cell line panel, 48 h
[1] = test system: IGROV-1
[2] = test system: RXF 393
[3] = test system: DU-145
[4] = test system: MDA-N
[5] = test system: OVCAR-3
[6] = test system: HT-29
[7] = test system: U-251
[8] = test system: PC-3
[9] = test system: CAKI-1
[10] = test system: SK-MEL-28
[11] = test system: HCT-116
[12] = test system: SK-MEL-2
[13] = test system: NCI-H460
[14] = test system: HCT-15
[15] = test system: SK-MEL-5
[16] = test system: NCI-H23
[17] = test system: COLO 205
[18] = test system: MCF7
[19] = test system: NCI/ADR-RES
[20] = test system: SK-OV-3
[21] = test system: Hs-578T
[22] = test system: OVCAR-8
[23] = test system: SF-268
[24] = test system: UO-31
[25] = test system: ACHN
[26] = test system: SW-620
[27] = test system: CCRF-CEM
[28] = test system: SN12C
[29] = test system: OVCAR-5
[30] = test system: HOP-62
[31] = test system: A549
[32] = test system: SNB-75
[33] = test system: UACC-257
[34] = test system: SF-295
[35] = test system: BT-549
[36] = test system: EKVX
[37] = test system: NCI-H522
[38] = test system: KM12
[39] = test system: 786-0
[40] = test system: SNB-19
[41] = test system: OVCAR-4
[42] = test system: TK-10
[43] = test system: MDA-MB-435
[44] = test system: HOP-92
[45] = test system: SF-539
[46] = test system: MDA-MB-231
[47] = test system: M14
[48] = test system: LOX IMVI
[49] = test system: MOLT-4
[50] = test system: HCC 2998
[51] = test system: UACC-62
[52] = test system: SR
[53] = test system: A498
[54] = test system: RPMI-8226
[55] = test system: NCI-H226
[56] = test system: HL-60
[57] = test system: K562
[58] = test system: Malme-3M

SMILES: O=C1Nc2ccccc2/C1=N/Nc1nc(-c2ccc(Br)cc2)cs1
- GI50 [1]: 0.678 µM (active)
- GI50 [2]: 43.9 µM (inactive)
- GI50 [3]: 23.3 µM (inactive)
- GI50 [4]: 41.5 µM (inactive)
- GI50 [5]: 20.7 µM (inactive)
- GI50 [6]: 17.7 µM (inactive)
- GI50 [7]: 14.3 µM (inactive)
- GI50 [8]: 28.6 µM (inactive)
- GI50 [9]: 18.6 µM (inactive)
- GI50 [10]: 12.6 µM (inactive)
- GI50 [11]: 26.7 µM (inactive)
- GI50 [12]: 46.1 µM (inactive)
- GI50 [13]: 21.4 µM (inactive)
- GI50 [14]: 19.4 µM
- GI50 [15]: 15.6 µM (inactive)
- GI50 [16]: 27.2 µM (inactive)
- GI50 [17]: 24.9 µM (inactive)
- GI50 [18]: 37.3 µM (inactive)
- GI50 [19]: 18 µM (inactive)
- GI50 [20]: 23.7 µM (inactive)
- GI50 [21]: 17.9 µM (inactive)
- GI50 [22]: 19.5 µM (inactive)
- GI50 [23]: 20 µM (inactive)
- GI50 [24]: 10.3 µM (inactive)
- GI50 [25]: 17.5 µM (inactive)
- GI50 [26]: 28.2 µM (inactive)
- GI50 [27]: 15.7 µM (inactive)
- GI50 [28]: 27.1 µM (inactive)
- GI50 [29]: 23.8 µM (inactive)
- GI50 [30]: 14.6 µM (inactive)
- GI50 [31]: 25.2 µM (inactive)
- GI50 [32]: 19.7 µM (inactive)
- GI50 [33]: 22.7 µM (inactive)
- GI50 [34]: 24.1 µM (inactive)
- GI50 [35]: 20 µM (inactive)
- GI50 [36]: 7.85 µM (inactive)
- GI50 [37]: 25.9 µM (inactive)
- GI50 [38]: 30.3 µM (inactive)
- GI50 [39]: 17.3 µM (inactive)
- GI50 [40]: 18.5 µM (inactive)
- GI50 [41]: 18.5 µM (inactive)
- GI50 [42]: 28.6 µM (inactive)
- GI50 [43]: 36.5 µM (inactive)
- GI50 [44]: 11.4 µM (inactive)
- GI50 [45]: 17.5 µM (inactive)
- GI50 [46]: 17.5 µM (inactive)
- GI50 [47]: 21.8 µM (inactive)
- GI50 [48]: 17.4 µM (inactive)
- GI50 [49]: 74.8 µM (inactive)
- GI50 [50]: 31.8 µM (inactive)
- GI50 [51]: 20.6 µM (inactive)

SMILES: O=c1[nH]n(CCc2ccccc2CCl)c2ccc([N+](=O)[O-])cc12
- GI50 [1]: 83.9 µM (inactive)
- GI50 [52]: 50.9 µM (inactive)
- GI50 [2]: 92.3 µM (inactive)
- GI50 [3]: 77.3 µM (inactive)
- GI50 [5]: > 100 µM (inactive)
- GI50 [6]: 88.1 µM (inactive)
- GI50 [7]: 81.8 µM (inactive)
- GI50 [53]: 91 µM (inactive)
- GI50 [8]: 78.3 µM (inactive)
- GI50 [9]: 91 µM (inactive)
- GI50 [10]: > 100 µM (inactive)
- GI50 [11]: 52.1 µM (inactive)
- GI50 [12]: > 100 µM (inactive)
- GI50 [13]: 57 µM (inactive)
- GI50 [14]: > 100 µM
- GI50 [15]: 29.7 µM (inactive)
- GI50 [16]: 89.9 µM (inactive)
- GI50 [17]: > 100 µM (inactive)
- GI50 [18]: 48.5 µM (inactive)
- GI50 [19]: 31.8 µM (inactive)
- GI50 [54]: > 100 µM (inactive)
- GI50 [21]: 54.3 µM (inactive)
- GI50 [22]: 71.3 µM (inactive)
- GI50 [23]: > 100 µM (inactive)
- GI50 [24]: 25 µM (inactive)
- GI50 [25]: > 100 µM (inactive)
- GI50 [55]: 95.9 µM (inactive)
- GI50 [26]: > 100 µM (inactive)
- GI50 [27]: 37 µM (inactive)
- GI50 [28]: > 100 µM (inactive)
- GI50 [29]: > 100 µM (inactive)
- GI50 [30]: > 100 µM (inactive)
- GI50 [31]: 99.1 µM (inactive)
- GI50 [56]: 29.4 µM (inactive)
- GI50 [57]: 38.9 µM (inactive)
- GI50 [33]: 70.6 µM (inactive)
- GI50 [34]: 52.5 µM (inactive)
- GI50 [35]: 33.3 µM (inactive)
- GI50 [36]: 3.65 µM (inactive)
- GI50 [37]: 52.6 µM (inactive)
- GI50 [38]: 83.8 µM (inactive)
- GI50 [39]: 93.8 µM (inactive)
- GI50 [58]: > 100 µM (inactive)
- GI50 [40]: > 100 µM (inactive)
- GI50 [41]: 37.2 µM (inactive)
- GI50 [42]: > 100 µM (inactive)
- GI50 [43]: 63.5 µM (inactive)
- GI50 [44]: 67.6 µM (inactive)
- GI50 [45]: > 100 µM (inactive)
- GI50 [46]: 76.2 µM (inactive)
- GI50 [47]: 58.1 µM (inactive)
- GI50 [48]: 41.5 µM (inactive)
- GI50 [49]: 72.8 µM (inactive)
- GI50 [50]: > 100 µM (inactive)
- GI50 [51]: 45.8 µM (inactive)
